This passage reports Kd and Ki results from patent US4493838A, “Medicaments containing derivatives of 3-chloro-quinoline” (Pharmindustrie, priority 1980, dated 1985).

In general, Kd refers to a measure of binding affinity in units of concentration. Broadly, the Ki is the equilibrium dissociation constant of an inhibitor or competing ligand from its target.

Experiment [1] deals with cerebral receptor sites of the benzodiazepines. The note with it: 3H-Diazepam; constant used in the formula for Ki; read-out: KD (constant of affinity); cited from earlier work.
For experiment [2] the target is unchanged. Nature of the experiment: Affinity for the cerebral receptor sites of the benzodiazepines (displacement of 3H-Diazepam, method of Mohler et al.). To be noted: displacement of 3H-Diazepam from its binding site; Ki calculated from IC50, C and KD. The source says:
The products have been tested according to the method of Mohler et al., Life Science, 1977, 20, 2101, which is relied on herein.

For the compound `CN1C(=O)CN=C(c2ccccc2)c2cc(Cl)ccc21` [3H Diazepam], the equilibrium dissociation constant (Kd) in experiment [1] was 2740 nM.
As to `Clc1cnc2ccccc2c1CCC1CCNCC1` [Example 1, 3-Chloro-4-[2-(4-piperidyl)-ethyl]-quinoline], the inhibition constant Ki in experiment [2] was 2 µM.
Still for that read-out and setting: the same measure for `COc1ccc2ncc(Cl)c(CCC3CCNCC3)c2c1` [Example 3, 3-Chloro-6-methoxy-4-[2-(4-piperidyl)-ethyl]-quinoline]: 12 µM; for `Cc1nc2ccccc2c(CCC2CCNCC2)c1Cl` [Example 4, 2-Methyl-3-chloro-4-[2-(4-piperidyl)-ethyl]-quinoline]: 1 µM; for `Clc1c(-c2ccccc2)nc2ccccc2c1CCC1CCNCC1` [Example 5, 2-Phenyl-3-chloro-4-[2-(4-piperidyl)-ethyl]-quinoline]: 0.5 µM.
Same read-out and setting: the same measure for `Clc1cnc2ccccc2c1CC1CCNCC1` [Example 6, 3-Chloro-4-[(4-piperidyl)-methyl]-quinoline]: 5 µM; for `Cc1cccc2c(CC3CCNCC3)c(Cl)cnc12` [Example 8, 3-Chloro-8-methyl-4-[(4-piperidyl)-methyl]-quinoline]: 10 µM.
The same measure, in the same setting: the same measure for `Clc1cc2ccccc2nc1CCC1CCNCC1` [Example 9, 3-Chloro-2-[2-(4-piperidyl)-ethyl]-quinoline]: 5 µM.
